From patent publication US11584755B2 (IDEAYA BIOSCIENCES, INC., priority 2017, dated 2023) come the findings set out here.

One test has as its target hFEN1 (Homo sapiens (Human), UniProt P39748). The test can be described thus: Enzymatic IC50 assay, FAM-labeled DNA oligomer substrate, fluorescence intensity (FEN1). It is filed as biochemical. To be noted: hFEN1 70 pM, substrate 100 nM, reaction time 20 minutes, 23° C. The method, then: (§1) FEN1, EXO1 or XPG enzyme was incubated with compound or vehicle (DMSO) and the FAM-labeled DNA oligomer substrate in a microtiter plate. The stop buffer contains EDTA to stop the enzymatic reaction. The plate is read for fluorescence intensity. The high control (DMSO) with high fluorescence intensity represents no inhibition of enzymatic reaction while the low control (10 μM) with low fluorescence intensity represents full inhibition of enzymatic reaction.
(§2) • FEN1 • hFEN1: 70 pM • Substrate: 100 nM • Reaction time: 20 minutes • EXO1 • hEXO1: 6 nM, Isoforml • Substrate: 30 nM • Reaction time: 60 minutes • XPG • hXPG: 100 nM • Substrate: 100 nM • Reaction time: 120 minutes
(§3) Annealing Buffer: 50 mM Tris-HCl, 50 mM NaCl, 1 mM DTT Assay buffer: 50 mM Tris-HCl pH 8.0, 10 mM MgCl2, 0.01% BSA, 1 mM DTT Stop buffer: 50 mM EDTA in assay buffer Temperature: 23° C. Total volume: 40 μl Controls: • 0% inhibition control: DMSO • 100% inhibition control: 10 μM (final) 5-chloro-3-hydroxy-1,3-dihydroquinazoline-2,4-dione Enzyme Reaction and Detection: • 1. Prepare 25 μM intermediate stock of the substrate by diluting SEQ ID NO:1, SEQ ID NO:2, and SEQ ID NO:3 in annealing buffer, in a PCR tube. • 2. Place the PCR tube on a heat block, heat at 95° C. for 3 minutes, then drop in 0.2° C. increments over 2 minutes, stopping at 25° C. • 3. Remove the tube and let the tube cool at room temperature. • 4. Transfer 10 μL of 3× final concentration test compounds or DMSO to the appropriate wells of a microtiter plate. • 5. Transfer 10 μL of 3× final concentration enzyme in assay buffer or assay buffer alone to the appropriate wells. • 6. Incubate the plate at room temperature for 15 minutes. • 7. Transfer 10 μL of 3× substrate in assay buffer to all the test wells. • 8. Incubate the plate at room temperature for prescribed reaction time. • 9. Centrifuge the plate at 1000 rpm for 1 minute. • 10. Transfer 10 μL of stop buffer to all the test wells. • 11. Centrifuge the plate at 1000 rpm for 1 minute. • 12. Read the plate on a plate reader.

The target of another test is hEXO1, Isoform1 (Homo sapiens (Human), UniProt Q9UQ84). The test can be described thus: Enzymatic IC50 assay, FAM-labeled DNA oligomer substrate, fluorescence intensity (EXO1). To be noted: hEXO1 6 nM, substrate 30 nM, reaction time 60 minutes, 23° C. It is filed as biochemical. The method, then:
as §1, §2, §3

hFEN1, sequence (P39748 whole entry, canonical isoform): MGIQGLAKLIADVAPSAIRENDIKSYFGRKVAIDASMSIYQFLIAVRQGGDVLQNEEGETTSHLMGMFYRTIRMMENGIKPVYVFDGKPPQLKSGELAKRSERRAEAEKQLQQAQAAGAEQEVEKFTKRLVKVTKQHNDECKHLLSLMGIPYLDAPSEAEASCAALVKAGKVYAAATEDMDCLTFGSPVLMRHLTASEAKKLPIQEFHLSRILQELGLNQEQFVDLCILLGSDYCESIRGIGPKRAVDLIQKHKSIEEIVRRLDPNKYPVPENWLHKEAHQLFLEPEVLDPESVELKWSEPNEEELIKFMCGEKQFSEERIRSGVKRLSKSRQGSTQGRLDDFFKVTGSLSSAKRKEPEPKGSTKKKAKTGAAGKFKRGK
hEXO1, Isoform1, sequence (Q9UQ84 whole entry, canonical isoform): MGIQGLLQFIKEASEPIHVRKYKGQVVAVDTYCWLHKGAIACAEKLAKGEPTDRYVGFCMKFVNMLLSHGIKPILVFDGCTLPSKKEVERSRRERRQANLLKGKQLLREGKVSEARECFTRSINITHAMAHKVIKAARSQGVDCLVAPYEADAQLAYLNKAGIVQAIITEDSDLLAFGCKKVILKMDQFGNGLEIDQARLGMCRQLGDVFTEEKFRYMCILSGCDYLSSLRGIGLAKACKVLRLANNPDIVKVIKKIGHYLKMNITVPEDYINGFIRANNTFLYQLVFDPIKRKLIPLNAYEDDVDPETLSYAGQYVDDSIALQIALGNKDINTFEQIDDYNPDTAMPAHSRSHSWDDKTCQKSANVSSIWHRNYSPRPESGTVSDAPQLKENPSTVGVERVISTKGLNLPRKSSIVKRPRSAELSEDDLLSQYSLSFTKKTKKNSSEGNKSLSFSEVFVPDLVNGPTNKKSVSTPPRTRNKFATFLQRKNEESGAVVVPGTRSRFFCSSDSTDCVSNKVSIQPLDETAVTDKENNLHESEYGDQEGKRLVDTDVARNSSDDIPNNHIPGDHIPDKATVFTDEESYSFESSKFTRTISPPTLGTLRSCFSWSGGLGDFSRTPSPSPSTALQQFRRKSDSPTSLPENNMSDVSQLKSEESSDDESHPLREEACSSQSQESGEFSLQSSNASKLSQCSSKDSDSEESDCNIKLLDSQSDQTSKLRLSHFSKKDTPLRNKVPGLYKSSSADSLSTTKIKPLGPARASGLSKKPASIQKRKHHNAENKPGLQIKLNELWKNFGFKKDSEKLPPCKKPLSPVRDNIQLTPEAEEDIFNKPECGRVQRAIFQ

As usually defined, the IC50 is the concentration that gives 50% inhibition. A lower IC50 goes with inhibition by little substance. Turning to `O=C(O)c1c(O)c(=O)n(Cc2cccc([N+](=O)[O-])c2)c2ccsc12` [Example 6, 6-hydroxy-4-[(3-nitrophenyl)methyl]-5-oxo-thieno[3,2-b]pyridine-7-carboxylic acid], the IC50 at hFEN1 was 0.25 to 0.75 µM; against hEXO1, Isoform1, 2.25 to 10 µM.
For `CC(=O)N1CCC(Cn2c(=O)c(O)c(C(=O)O)c3sccc32)CC1` [Example 9, 4-[(1-acetyl-4-piperidyl)methyl]-6-hydroxy-5-oxo-thieno[3,2-b]pyridine-7-carboxylic acid], the IC50 was 2.25 to 10 µM against hFEN1 and 2.25 to 10 µM against hEXO1, Isoform1.
As to `O=C(O)c1c(O)c(=O)n(Cc2cnc3c(-c4ccncc4)cccn23)c2ccsc12` [Example 31, 6-hydroxy-5-oxo-4-{[8-(pyridin-4-yl)imidazo[1,2-a]pyridin-3-yl]methyl}-4,5-dihydrothieno[3,2-b]pyridine-7-carboxylic acid], the IC50 is 2.25 to 10 µM at hFEN1 and 2.25 to 10 µM against hEXO1, Isoform1.
Turning to `COc1ccc(-c2ncc(Cn3c(=O)c(O)c(C(=O)O)c4sccc43)s2)cc1` [Example 32, 6-hydroxy-4-{[2-(4-methoxyphenyl)thiazol-5-yl]methyl}-5-oxo-4,5-dihydrothieno[3,2-b]pyridine-7-carboxylic acid], the IC50 was 0.25 to 0.75 µM at hFEN1 and 0.75 to 2.25 µM against hEXO1, Isoform1.
Taken in the same sequence, the figures for `O=C(O)c1c(O)c(=O)n(Cc2ccccc2[N+](=O)[O-])c2ccsc12` [Example 37, 6-hydroxy-4-(2-nitrobenzyl)-5-oxo-4,5-dihydrothieno[3,2-b]pyridine-7-carboxylic acid] were 0.25 to 0.75 µM and 2.25 to 10 µM.
Taken in the same sequence, the figures for `CCOC(=O)c1c(O)c(=O)n(Cc2ccc(N)cc2)c2ccsc12` [Example 41, ethyl 4-(4-aminobenzyl)-6-hydroxy-5-oxo-4,5-dihydrothieno[3,2-b]pyridine-7-carboxylate] were 0.25 to 0.75 µM and 2.25 to 10 µM.
Taken in the same sequence, the figures for `O=C(O)c1c(O)c(=O)n(CC2CCCC2)c2ccsc12` [Example 45, 4-(cyclopentylmethyl)-6-hydroxy-5-oxo-4,5-dihydrothieno[3,2-b]pyridine-7-carboxylic acid] were 2.25 to 10 µM and 2.25 to 10 µM.
Take `N#Cc1ccc(Cn2c(=O)c(O)c(C(=O)O)c3sccc32)cc1` [Example 48, 4-(4-cyanobenzyl)-6-hydroxy-5-oxo-4,5-dihydrothieno[3,2-b]pyridine-7-carboxylic acid]: the IC50 against hFEN1 was 2.25 to 10 µM; against hEXO1, Isoform1, 2.25 to 10 µM.
For `CC(=O)N1CCCC(Cn2c(=O)c(O)c(C(=O)O)c3sccc32)C1` (stereo not drawn) [Example 49, 4-((1-acetylpiperidin-3-yl)methyl)-6-hydroxy-5-oxo-4,5-dihydrothieno[3,2-b]pyridine-7-carboxylic acid], the IC50 at hFEN1 fell in the range of 2.25 to 10 µM; on hEXO1, Isoform1 it was 2.25 to 10 µM.
For `O=C(O)c1c(O)c(=O)n(CC2CCCNC2)c2ccsc12` (stereo not drawn) [Example 62, 6-hydroxy-5-oxo-4-(piperidin-3-ylmethyl)-4,5-dihydrothieno[3,2-b]pyridine-7-carboxylic acid], the IC50 lay in the range of 2.25 to 10 µM against hFEN1 and 2.25 to 10 µM at hEXO1, Isoform1.
Regarding `CNC(=O)c1cccc(Cn2c(=O)c(O)c(C(=O)O)c3sccc32)c1` [Example 66, 6-hydroxy-4-[3-(methylcarbamoyl)benzyl]-5-oxo-4,5-dihydrothieno[3,2-b]pyridine-7-carboxylic acid], the IC50 lay in the range of 2.25 to 10 µM against hFEN1 and 2.25 to 10 µM at hEXO1, Isoform1.
On to `COc1ccc(Cn2c(=O)c(O)c(C(=O)O)c3sccc32)cc1Cl` [Example 70, 4-(3-chloro-4-methoxybenzyl)-6-hydroxy-5-oxo-4,5-dihydrothieno[3,2-b]pyridine-7-carboxylic acid], for which the IC50 at hFEN1 is below 0.2 µM; on hEXO1, Isoform1, 0.75 to 2.25 µM.
For `O=C(O)c1c(O)c(=O)n(Cc2cccc3nonc23)c2ccsc12` [Example 72, 4-(benzo[c][1,2,5]oxadiazol-4-ylmethyl)-6-hydroxy-5-oxo-4,5-dihydrothieno[3,2-b]pyridine-7-carboxylic acid], in that order: 2.25 to 10 µM and 2.25 to 10 µM.
As to `Cc1nc(Cn2c(=O)c(O)c(C(=O)O)c3sccc32)cs1` [Example 92, 6-hydroxy-4-[(2-methylthiazol-4-yl)methyl]-5-oxo-4,5-dihydrothieno[3,2-b]pyridine-7-carboxylic acid], the IC50 at hFEN1 is 2.25 to 10 µM; at hEXO1, Isoform1, above 10 µM.
On to `Cc1nc(Cn2c(=O)c(O)c(C(=O)O)c3sccc32)co1` [Example 96, 6-hydroxy-4-((2-methyloxazol-4-yl)methyl)-5-oxo-4,5-dihydrothieno[3,2-b]pyridine-7-carboxylic acid], for which the 50% inhibitory concentration (IC50) on hFEN1 is above 10 µM; against hEXO1, Isoform1, above 10 µM.
Consider `Nc1ccc(Cn2c(=O)c(O)c(C(=O)O)c3sccc32)cn1` [Example 97, 4-[(6-aminopyridin-3-yl)methyl]-6-hydroxy-5-oxo-4,5-dihydrothieno[3,2-b]pyridine-7-carboxylic acid], for which the IC50 is below 0.2 µM at hFEN1 and 2.25 to 10 µM at hEXO1, Isoform1.
The compound `O=C(O)c1c(O)c(=O)n(Cc2cnn(Cc3cncnc3)c2)c2ccsc12` [Example 135, 6-hydroxy-5-oxo-4-{[1-(pyrimidin-5-ylmethyl)-1H-pyrazol-4-yl]methyl}-4,5-dihydrothieno[3,2-b]pyridine-7-carboxylic acid] came in with an IC50 against hFEN1 below 0.2 µM.
Still for that read-out and setting: the result for `O=C(O)c1c(O)c(=O)n(Cc2cnn(CC(F)(F)F)c2)c2ccsc12` [Example 137, 6-hydroxy-5-oxo-4-{[1-(2,2,2-trifluoroethyl)-1H-pyrazol-4-yl]methyl}-4,5-dihydrothieno[3,2-b]pyridine-7-carboxylic acid] reads below 0.2 µM.
The same measure, in the same setting: the result for `O=C(O)c1c(O)c(=O)n(Cc2cnn(Cc3cn4cccnc4n3)c2)c2ccsc12` [Example 139, 6-hydroxy-4-{[1-(imidazo[1,2-a]pyrimidin-2-ylmethyl)-1H-pyrazol-4-yl]methyl}-5-oxo-4,5-dihydrothieno[3,2-b]pyridine-7-carboxylic acid] reads below 0.2 µM.
Same read-out and setting: the result for `O=C(O)c1c(O)c(=O)n(Cc2cnn(CC3CCS(=O)(=O)CC3)c2)c2ccsc12` [Example 145] reads 0.25 to 0.75 µM; that for `O=C(O)c1c(O)c(=O)n(Cc2ccc(-c3ccccc3)nc2)c2ccsc12` [Example 147, 6-hydroxy-5-oxo-4-[(6-phenylpyridin-3-yl)methyl]-4,5-dihydrothieno[3,2-b]pyridine-7-carboxylic acid], 0.25 to 0.75 µM.
Consider `COc1cccc(Cn2cc(Cn3c(=O)c(O)c(C(=O)O)c4sccc43)nn2)c1` [Example 150, 6-hydroxy-4-{[1-(3-methoxybenzyl)-1H-1,2,3-triazol-4-yl]methyl}-5-oxo-4,5-dihydrothieno[3,2-b]pyridine-7-carboxylic acid], for which the half-inhibitory concentration (IC50) on hFEN1 was below 0.2 µM.
Still for that read-out and setting: under `COc1cc(-c2ccc(Cn3c(=O)c(O)c(C(=O)O)c4sccc43)cc2)ccn1` [Example 151, 6-hydroxy-4-(4-(2-methoxypyridin-4-yl)benzyl)-5-oxo-4,5-dihydrothieno[3,2-b]pyridine-7-carboxylic acid] stands 0.25 to 0.75 µM.
`COCCOc1ccc(Cn2c(=O)c(O)c(C(=O)O)c3sccc32)cc1` [Example 152, 6-hydroxy-4-[4-(2-methoxyethoxy)benzyl]-5-oxo-4,5-dihydrothieno[3,2-b]pyridine-7-carboxylic acid]: on hFEN1, the IC50 is below 0.2 µM.
At hFEN1, `CS(=O)(=O)COc1ccc(Cn2c(=O)c(O)c(C(=O)O)c3sccc32)cc1` [Example 153, 6-hydroxy-4-{4-[(methylsulfonyl)methoxy]benzyl}-5-oxo-4,5-dihydrothieno[3,2-b]pyridine-7-carboxylic acid] had an IC50 of 0.25 to 0.75 µM.
Same read-out and setting: under `COc1ccc(Cn2c(=O)c(O)c(C(=O)O)c3sc(CC(C)C)cc32)cc1` [Example 157, 6-hydroxy-2-isobutyl-4-(4-methoxybenzyl)-5-oxo-4,5-dihydrothieno[3,2-b]pyridine-7-carboxylic acid] stands 2.25 to 10 µM.
Consider `Cn1cc(Cn2c(=O)c(O)c(C(=O)O)c3sccc32)c(-c2ccccc2)n1` [Example 158, 6-hydroxy-4-[(1-methyl-3-phenyl-1H-pyrazol-4-yl)methyl]-5-oxo-4,5-dihydrothieno[3,2-b]pyridine-7-carboxylic acid], for which the IC50 at hFEN1 is 2.25 to 10 µM; at hEXO1, Isoform1, 0.75 to 2.25 µM.
The compound `Cc1c(Cn2c(=O)c(O)c(C(=O)O)c3sccc32)cnn1C` [Example 159, 4-[(1,5-dimethyl-1H-pyrazol-4-yl)methyl]-6-hydroxy-5-oxo-4,5-dihydrothieno[3,2-b]pyridine-7-carboxylic acid] showed an IC50 against hEXO1, Isoform1 of 2.25 to 10 µM.
